Data set [1] deals with P. falciparum 3D7 (CQ-susceptible strain). The data set is described as follows: Antiplasmodial activity, asexual blood stages, HRP2 ELISA-based assay, 3D7 strain. The data set is classed as cell-based, Plasmodium falciparum. Conditions: read-out: P. falciparum IC50 (±SEM), 3D7. An excerpt:
We determined the half-maximal inhibitory concentration (IC50) of the complexes against asexual blood stages of P. falciparum using CQ-susceptible and CQ-resistant strains (Table 2). […]. Two strains were selected for the tests: the CQ-susceptible 3D7 strain (isolated in West Africa; obtained from MR4, VA, USA), and the CQ-resistant W2 strain (isolated in Indochina; obtained from MR4, VA, USA). Both were maintained in culture in RPMI 1640 (Invitrogen, Paisley, UK), supplemented with 10% human serum (Abcys S.A. Paris, France), and buffered with 25 mM HEPES and 25 mM NaHCO3. Parasites were grown in A-positive human blood (Etablissement Français du Sang, Marseille, France) in controlled atmospheric conditions that consisted of 10% O2, 5% CO2, and 85% N2 at 37 °C with 95% humidity. […]
For in vitro isotopic microtests, 25 μL/well of antimalarial drug and 200 μL/well of parasitized red blood cell suspension (final parasitemia 0.5%, final hematocrit 1.5%) were distributed into 96-well plates. The plates were incubated for 72 h at 37 °C in 85% N2, 10% O2, 5% CO2. After freezing and then thawing, the hemolyzed cultures were homogenized by vortexing the plates. The drug susceptibility assay was performed using the HRP2 ELISA-based assay of the Malaria Ag Celisa kit (ref KM2159, Cellabs PTY LDT, Brookvale, Australia), as described previously.[72] […] […]. IC50 are expressed as means of at least 5 to 7 independent experiments.
On the technique in general: An ELISA detects its analyte on a solid surface through an enzyme-linked reagent.

In data set [2] the test system is J774 cells. The data set is described as follows: Cytotoxicity in mammalian cells (CellTiter-Glo), J774. The data set is classed as cell-based. The following applies: J774 murine macrophage line; 72 h drug incubation; mean of three experiments; read-out: mammalian cells CC50 (±SEM), J774. The protocol: (§1) Cell lines J774 and HepG2 were incubated with the drug for 72 h, the same time frame as employed to determine antimalarial activity. Cytotoxicity was evaluated in parallel with ATV as a representative parental drug, while doxorubicin was used as a standard cytotoxic drug. These experiments were also used to estimate the in vitro selectivity index (Table 2).
(§2) Doxorubicin chloridrate (Eurofarma, São Paulo, Brazil) was used as a positive control, while untreated cells were employed as negative controls. Bioluminescence readings were performed using a Filtermax F5Multi-Mode instrument (Molecular Devices, Sunnyvale, CA) using the CellTiter-Glo kit (Promega Corporation, Madison, USA). Three independent experiments were performed and CC50 values were calculated.
For orientation: ATP-based viability assays read luminescence as a measure of living cells.

Data set [3] relates to P. falciparum W2 (CQ-resistant strain). The data set is described as follows: Antiplasmodial activity, asexual blood stages, HRP2 ELISA-based assay, W2 strain. The data set is classed as cell-based, Plasmodium falciparum. Conditions: read-out: P. falciparum IC50 (±SEM), W2. As to the method:
The potency of the metal complexes to inhibit parasite growth was also examined in comparison with ATV.
The two strains were synchronized twice with sorbitol before use,[69] and clonality was verified every 15 days through PCR genotyping of the polymorphic genetic markers msp1 and msp2 and microsatellite loci.[70],[71] Compounds were resuspended in DMSO and then diluted in RPMI-DMSO (99v/1v) to obtain final concentrations ranging from 0.25 to 20000 nM.
After freezing and then thawing, the hemolyzed cultures were homogenized by vortexing the plates. The drug susceptibility assay was performed using the HRP2 ELISA-based assay of the Malaria Ag Celisa kit (ref KM2159, Cellabs PTY LDT, Brookvale, Australia), as described previously.[72]

Data set [4] is described as follows: Cytotoxicity in mammalian cells (CellTiter-Glo), J774. The following applies: mouse, J774 macrophage cells; J774 murine macrophage line; 72 h drug incubation; mean of three experiments; read-out: mammalian cells CC50 (±SEM), J774. The data set is classed as cell-based. The protocol:
as §1, §2

The nature of data set [5]: Cytotoxicity in mammalian cells (CellTiter-Glo), HepG2. It is filed as cell-based. The following applies: HepG2 hepatocellular carcinoma cells; HepG2 human hepatocellular carcinoma line; 72 h drug incubation; mean of three experiments; read-out: mammalian cells CC50 (±SEM), HepG2. As to the method: as §1, §2
Data set [6] concerns β-hematin crystal formation. The data set is described as follows: β-Hematin crystal formation by FTIR spectroscopy. It is filed as biochemical. Conditions: acid-buffered medium pH 5; 1:3 hematin/compound ratio. The protocol: The ability of these compounds to inhibit the formation of β-hematin crystals was investigated by IR spectroscopy (Figure 2f). Of note, β-hematin crystal formation was assayed in an acid-buffered medium, while hemin titration was assayed at neutral pH. […]. For both ATV and complexes 1–3, there may have been overlapping between a decrease in the (C = O) band of heme species and a (C = O) band of quinone. However, there was no danger of overlaps in the (C–O) band of heme species at 1210 cm^–1, since these species are absent from the drugs.
The conversion of hematin into β-hematin crystals was determined by FTIR spectroscopy as described previously.[52] In a microtube, 20 mg hemin and three equivalents of the compounds were dissolved in 3 mL 0.1 M NaOH solution and stirred for 30 min at 60 °C. Then, 0.3 mL 0.1 M HCl and 1.7 mL sodium acetate buffer (10 M, pH 5) were added at the same temperature. […] After incubation for 120 min, the reaction mixture was cooled on ice for 10 min and then centrifuged and washed with water to remove salts. Resulting crystals were dried and IR spectra were obtained using ATR mode.[66]−[68]

The nature of data set [7]: Interaction with ferriprotoporphyrin IX, spectroscopic titration of Soret band at 402 nm. The data set is classed as binding. The following applies: pH 7.4; 40% aqueous DMSO; 1:1 complexation model; mean and SEM of three experiments. The protocol:
The association constants (Log K) of the compounds with hemin were determined at pH 7.4 using a 1:1 complexation model with the equation proposed by Egan et al.[52] for the nonlinear least-squares fitting (Figure 2, Table 2).
Following a procedure described in the literature,[52] the association constant (Log K) of the drugs with ferriprotoporphyrin IX was determined in 40% aqueous DMSO. A stock solution of hemin chloride was prepared by adding 3.5 mg hemin to 10 mL DMSO and adjusted to pH 7.5. A working solution of hemin in 40% DMSO was further prepared by mixing 140 μL hemin stock solution, 5 mL distilled water, 3.86 mL DMSO, and 1 mL 0.2 M Tris (tris(hydroxymethyl)aminomethane) buffer. Aliquots of compounds were added to this working hemin solution. Blank solutions containing only hemin or compounds were prepared to subtract the absorbance of the compounds. […] Binding affinity was determined using the equation A = (A0 + A∞K[C])/(1 + K[C]) for a 1:1 complexation model using nonlinear least-squares fitting, where A0 is the absorbance of Fe(III)PPIX, A∞ is the absorbance of the compound–hemin adduct at saturation, and K is the association constant. Three independent experiments were performed.

[8] abbreviates: CQ-susceptible 3D7 strain, 72 h drug incubation, mean of five to seven experiments.
[9] abbreviates: CQ-resistant W2 strain, 72 h drug incubation, mean of five to seven experiments.

The structures appear in SMILES notation. Where two headings read alike, the source gives them in different places.

The IC50 is the point on the concentration scale where inhibition reaches its midpoint. Broadly, the CC50 is the concentration at which the toxic effect on the cells reaches its halfway point. As to `O=[N+]([O-])[O-].[Cu+].c1ccc(P(c2ccccc2)c2ccccc2)cc1.c1ccc(P(c2ccccc2)c2ccccc2)cc1` [[Cu(PPh3)2NO3]], the IC50 in data set [1] (setting [8]) and in data set [3] (setting [9]) was over 20000 nM each time. Moreover, the CC50 in data set [2] is over 80000 nM.

In the case of `[Cl][Au].c1ccc(P(c2ccccc2)c2ccccc2)cc1` [AuClPPh3, [Au(PPh3)Cl]], the results for the IC50 in data set [1] (setting [8]) and in data set [3] (setting [9]) were 1430 ± 309 nM and 3290 ± 629 nM, respectively. Moreover, in data set [2], the CC50 turned out to be 4100 ± 800 nM.

For `COc1cccc2c1C(=O)c1c(O)c3c(c(O)c1C2=O)C[C@@](O)(C(=O)CO)C[C@@H]3O[C@H]1C[C@H](N)[C@H](O)[C@H](C)O1` [DOX, Doxorubicin, reference compound], the values for the CC50 at 72 h in data set [4] and in data set [5] were 440 ± 310 nM and under 120 nM, respectively.

With `CCN(CC)CCCC(C)Nc1ccnc2cc(Cl)ccc12` (stereo not drawn) [CQ, chloroquine], the “inhibition of β-hematin crystal formation (IR bands 1663 and 1210 cm^–1)” value in data set [6] was “decreased simultaneously in these two bands”. The half-maximal inhibitory concentration (IC50) in data set [1] (Plasmodium falciparum, 3D7, 72 h) is 23.8 ± 5.5 nM; in data set [3] (Plasmodium falciparum, W2, 72 h), 526 ± 126 nM. The “log K (association constant of drug binding to hemin)” value in data set [7] worked out at 4.78 ± 0.01.

Values taken from PMC11409218, “Metal(triphenylphosphine)-atovaquone Complexes: Synthesis, Antimalarial Activity, and Suppression of Heme Detoxification” (Inorganic Chemistry, 2024).
